Results: patent US7592458B2, “Dermal anesthetic compounds and pharmaceutical compositions for inducing local anesthesia and mitigating neuropathic pain” (priority 2006, dated 2009)
Where a name gives a salt, the structure may show the parent alone. Marks after values point to notes of the source that are not given here.

Tested on: guinea pigs
Assay: Local anesthetic activity (infiltration anesthesia), pin-prick method after intradermal injection
Format: in vivo, guinea pig
Details: 0.1 ml intradermal

| Structure (SMILES) | Dermal anesthesia after intradermal injection: non-responding pinpricks of 36 (0.05%, 15 min) | Dermal anesthesia after intradermal injection: non-responding pinpricks of 36 (0.05%, 30 min) | Dermal anesthesia after intradermal injection: non-responding pinpricks of 36 (0.05%, 60 min) | Dermal anesthesia after intradermal injection: non-responding pinpricks of 36 (0.05%, 90 min) | Dermal anesthesia after intradermal injection: non-responding pinpricks of 36 (0.05%, 120 min) | Dermal anesthesia after intradermal injection: non-responding pinpricks of 36 (0.10%, 15 min) | Dermal anesthesia after intradermal injection: non-responding pinpricks of 36 (0.10%, 30 min) | Dermal anesthesia after intradermal injection: non-responding pinpricks of 36 (0.10%, 60 min) | Dermal anesthesia after intradermal injection: non-responding pinpricks of 36 (0.10%, 90 min) | Dermal anesthesia after intradermal injection: non-responding pinpricks of 36 (0.10%, 120 min) | further results |
| --- | --- | --- | --- | --- | --- | --- | --- | --- | --- | --- | --- |
| CCCCN1CCCCC1CCN(c1ccccc1)C1CCc2ccccc2C1 (stereo not drawn) [Bu-CLAC-34•HCl] | 36/36 | 36/36 | 36/36 | 36/36 | 36/36 | 36/36 | 36/36 | 36/36 | 36/36 | 36/36 |  |
| c1ccc(N(CCC2CCCCN2)C2CCc3ccccc3C2)cc1 (stereo not drawn) [CLAC-34•HCl] | 35/36* | 36/36** | 6/36 | 36/36 | 36/36 | 36/36 | 36/36 | 36/36 | 36/36 | 36/36 |  |
| CCCN(CCC)CCN(c1ccccc1)C1CCc2ccccc2C1 (stereo not drawn) [CLAC-PP•HCl] | 36/36 | 36/36 | 36/36 | 36/36 | 36/36 | 36/36 | 36/36 | 36/36 | 36/36 | 36/36 |  |
| CCN(CC)CC(=O)Nc1c(C)cccc1C [Lidocaine.HCl, lidocaine, reference compound] |  |  |  |  |  |  |  |  |  |  | Dermal anesthesia after intradermal injection: non-responding pinpricks of 36 (0.25%, 15 min): 31/36; Dermal anesthesia after intradermal injection: non-responding pinpricks of 36 (0.25%, 30 min): 21/36; Dermal anesthesia after intradermal injection: non-responding pinpricks of 36 (0.25%, 60 min): 6/36; Dermal anesthesia after intradermal injection: non-responding pinpricks of 36 (0.25%, 90 min): 4/36; Dermal anesthesia after intradermal injection: non-responding pinpricks of 36 (0.25%, 120 min): 1/36; Dermal anesthesia after intradermal injection: non-responding pinpricks of 36 (0.50%, 15 min): 24/36; Dermal anesthesia after intradermal injection: non-responding pinpricks of 36 (0.50%, 30 min): 18/36; Dermal anesthesia after intradermal injection: non-responding pinpricks of 36 (0.50%, 60 min): 11/36; Dermal anesthesia after intradermal injection: non-responding pinpricks of 36 (0.50%, 90 min): 10/36; Dermal anesthesia after intradermal injection: non-responding pinpricks of 36 (0.50%, 120 min): 9/36; Dermal anesthesia after intradermal injection: non-responding pinpricks of 36 (1.00%, 15 min): 32/36; Dermal anesthesia after intradermal injection: non-responding pinpricks of 36 (1.00%, 30 min): 28/36; Dermal anesthesia after intradermal injection: non-responding pinpricks of 36 (1.00%, 60 min): 9/36; Dermal anesthesia after intradermal injection: non-responding pinpricks of 36 (1.00%, 90 min): 8/36; Dermal anesthesia after intradermal injection: non-responding pinpricks of 36 (1.00%, 120 min): 6/36 |
